The values that follow come from PubChem BioAssay AID1745844 (Carcinogenic Potency Database (CPDB), 2022).

Active and inactive are the calls of the source. How the calls were made is not given here.

In the data set the test system is rodent lifetime carcinogenesis bioassay, tumor incidence TD50. Nature of the data set: carcinogenic potency in animals, long-term in vivo studies, CPDB compilation (AID 1745844).

A word on the TD50: it is the dose at which the toxic effect under study appears in half of the subjects. Turning to `CBr`, the carcinogen call is, setting by setting: (mouse, strain B6C3F1, females, inhaled, site: any site (literature study), lesion: several types, types named in the paper, dosed 75 weeks, study length 104 weeks) “negative (inactive)”; (mouse, strain B6C3F1, males, inhaled, site: any site (literature study), lesion: several types, types named in the paper, dosed 75 weeks, study length 104 weeks) “negative (inactive)”; (mouse, strain Crj:BDF1, females, inhaled, site: liver, lesion: hepatocellular adenoma, dosed 104 weeks, study length 105 weeks) “negative (inactive)”; (mouse, strain Crj:BDF1, females, inhaled, site: lung, lesion: alveolar/bronchiolar carcinoma, dosed 104 weeks, study length 105 weeks) “negative (inactive)”; (mouse, strain Crj:BDF1, males, inhaled, site: liver, lesion: hepatocellular adenoma, dosed 104 weeks, study length 105 weeks) “negative (inactive)”; (mouse, strain Crj:BDF1, males, inhaled, site: liver, lesion: hepatocellular carcinoma, dosed 104 weeks, study length 105 weeks) “negative (inactive)”. Also, the carcinogen call was “negative (inactive)” (mouse, strain Crj:BDF1, males, inhaled, site: lung, lesion: alveolar/bronchiolar adenoma, dosed 104 weeks, study length 105 weeks); “negative (inactive)” (mouse, strain Crj:BDF1, males, inhaled, site: lung, lesion: alveolar/bronchiolar carcinoma, dosed 104 weeks, study length 105 weeks); “negative (inactive)” (rat, strain F344/DuCrj, females, inhaled, site: liver, lesion: hepatocellular adenoma, dosed 104 weeks, study length 105 weeks); “negative (inactive)” (rat, strain F344/DuCrj, females, inhaled, site: liver, lesion: hepatocellular carcinoma, dosed 104 weeks, study length 105 weeks); “negative (inactive)” (rat, strain F344/DuCrj, males, inhaled, site: liver, lesion: hepatocellular adenoma, dosed 104 weeks, study length 105 weeks); “negative (inactive)” (rat, strain F344/DuCrj, males, inhaled, site: liver, lesion: hepatocellular carcinoma, dosed 104 weeks, study length 105 weeks). Besides, the carcinogen call (rat, strain Wistar-random, females, inhaled, site: any site (literature study), lesion: malignant tumor, dosed 129 weeks, study length 129 weeks) was “negative (inactive)”; the carcinogen call (rat, strain Wistar-random, females, inhaled, site: any site (literature study), lesion: one or several types, types not named, dosed 129 weeks, study length 129 weeks) is “negative (inactive)”; the carcinogen call (rat, strain Wistar-random, females, inhaled, site: liver, lesion: cholangiocarcinoma, dosed 129 weeks, study length 129 weeks) is “negative (inactive)”; the carcinogen call (rat, strain Wistar-random, females, inhaled, site: nasal cavity, olfactory epithelium, lesion: one or several types, types not named, dosed 129 weeks, study length 129 weeks) is “negative (inactive)”; the carcinogen call (rat, strain Wistar-random, females, inhaled, site: nasal cavity, respiratory epithelium, lesion: one or several types, types not named, dosed 129 weeks, study length 129 weeks) is “negative (inactive)”; the carcinogen call (rat, strain Wistar-random, males, inhaled, site: any site (literature study), lesion: malignant tumor, dosed 128 weeks, study length 128 weeks) is “negative (inactive)”. For the same compound, the carcinogen call was “negative (inactive)” (rat, strain Wistar-random, males, inhaled, site: any site (literature study), lesion: one or several types, types not named, dosed 128 weeks, study length 128 weeks); “negative (inactive)” (rat, strain Wistar-random, males, inhaled, site: liver, lesion: cholangiocarcinoma, dosed 128 weeks, study length 128 weeks); “negative (inactive)” (rat, strain Wistar-random, males, inhaled, site: liver, lesion: hepatocellular carcinoma, dosed 128 weeks, study length 128 weeks); “negative (inactive)” (rat, strain Wistar-random, males, inhaled, site: liver, lesion: neoplastic nodule, dosed 128 weeks, study length 128 weeks); “negative (inactive)” (rat, strain Wistar-random, males, inhaled, site: nasal cavity, olfactory epithelium, lesion: one or several types, types not named, dosed 128 weeks, study length 128 weeks); “negative (inactive)” (rat, strain Wistar-random, males, inhaled, site: nasal cavity, respiratory epithelium, lesion: fibrosarcoma, dosed 128 weeks, study length 128 weeks). Further, the carcinogen call reads like this: (rat, strain Wistar-random, males, inhaled, site: nasal cavity, respiratory epithelium, lesion: osteosarcoma, dosed 128 weeks, study length 128 weeks) “negative (inactive)”; (rat, strain Wistar-random, males, inhaled, site: nasal cavity, respiratory epithelium, lesion: squamous-cell carcinoma, dosed 128 weeks, study length 128 weeks) “negative (inactive)”; (rat, strain Wistar-random, males, inhaled, site: pituitary gland, lesion: hemorrhagic tumor, dosed 128 weeks, study length 128 weeks) “negative (inactive)”. Also, the TD50 (mouse, strain Crj:BDF1, females, inhaled, site: liver, lesion: hepatocellular carcinoma, dosed 104 weeks, study length 105 weeks) was 23900 mg/kg/day (inactive); the TD50 (mouse, strain Crj:BDF1, females, inhaled, site: lung, lesion: alveolar/bronchiolar adenoma, dosed 104 weeks, study length 105 weeks) is 6420 mg/kg/day (inactive); the TD50 (mouse, strain Crj:BDF1, females, inhaled, site: lymph node, lesion: malignant lymphoma, dosed 104 weeks, study length 105 weeks) was 845 mg/kg/day (inactive); the TD50 (rat, strain F344/DuCrj, females, inhaled, site: adrenal gland, lesion: pheochromocytoma, dosed 104 weeks, study length 105 weeks) was 805 mg/kg/day (inactive); the TD50 (rat, strain F344/DuCrj, males, inhaled, site: peritoneum, lesion: mesothelioma, malignant, dosed 104 weeks, study length 105 weeks) was 40.8 mg/kg/day (inactive); the TD50 (rat, strain F344/DuCrj, males, inhaled, site: pituitary gland, lesion: adenoma, dosed 104 weeks, study length 105 weeks) is 31.8 mg/kg/day (inactive). Further, the TD50 (rat, strain Wistar-random, females, inhaled, site: liver, lesion: neoplastic nodule, dosed 129 weeks, study length 129 weeks) was 2240 mg/kg/day (inactive).

As to `CCCCN(N)C=O`, the TD50 by setting is: (mouse, strain Swiss albino, females, in drinking water, site: clitoral gland, lesion: several types, types named in the paper, dosed 92 weeks, study length 92 weeks) 252 mg/kg/day; (mouse, strain Swiss albino, females, in drinking water, site: clitoral gland, lesion: squamous-cell carcinoma, dosed 92 weeks, study length 92 weeks) 321 mg/kg/day; (mouse, strain Swiss albino, females, in drinking water, site: lung, lesion: several types, types named in the paper, dosed 92 weeks, study length 92 weeks) 19.4 mg/kg/day; (mouse, strain Swiss albino, males, in drinking water, site: lung, lesion: several types, types named in the paper, dosed 90 weeks, study length 90 weeks) 19.2 mg/kg/day; (mouse, strain Swiss albino, males, in drinking water, site: preputial gland, lesion: angiosarcoma, dosed 90 weeks, study length 90 weeks) 519 mg/kg/day; (mouse, strain Swiss albino, males, in drinking water, site: preputial gland, lesion: fibrosarcoma, dosed 90 weeks, study length 90 weeks) 304 mg/kg/day. The TD50 runs as follows: (mouse, strain Swiss albino, males, in drinking water, site: preputial gland, lesion: several types, types named in the paper, dosed 90 weeks, study length 90 weeks) 28.2 mg/kg/day; (mouse, strain Swiss albino, males, in drinking water, site: preputial gland, lesion: squamous-cell carcinoma, dosed 90 weeks, study length 90 weeks) 35.6 mg/kg/day. Besides, the carcinogen call (mouse, strain Swiss albino, males, in drinking water, site: liver, lesion: angioma, dosed 90 weeks, study length 90 weeks) was “negative (inactive)”.

Take `CN(CCO)N=O`: the TD50 by setting is: (rat, strain Fischer 344, males, by gavage, site: liver, lesion: hemangiosarcoma, dosed 69 weeks, study length 69 weeks) 8.97 mg/kg/day; (rat, strain Fischer 344, males, by gavage, site: liver, lesion: hepatocellular carcinoma, dosed 69 weeks, study length 69 weeks) 1.29 mg/kg/day; (rat, strain Fischer 344, males, by gavage, site: nasal cavity, lesion: squamous-cell carcinoma, dosed 69 weeks, study length 69 weeks) 2.06 mg/kg/day; (rat, strain Fischer 344, males, by gavage, site: nasal cavity, lesion: squamous-cell papilloma, dosed 69 weeks, study length 69 weeks) 8.97 mg/kg/day.

As to `C1CCNCC1`, where the note is “rat, strain MRC, females, in drinking water, site: any site (literature study), lesion: several types, types named in the paper, dosed 75 weeks, study length 104 weeks”, the TD50 was 63.3 mg/kg/day.

For the compound `O=C1c2ccccc2C(=O)c2c(O)c(O)cc(O)c21`, the TD50 is, setting by setting: (rat, strain Fischer 344, males, in feed, site: urinary bladder, lesion: malignant tumor, dosed 74 weeks, study length 74 weeks) 678 mg/kg/day; (rat, strain Fischer 344, males, in feed, site: urinary bladder, lesion: squamous-cell carcinoma, dosed 74 weeks, study length 74 weeks) 3680 mg/kg/day; (rat, strain Fischer 344, males, in feed, site: urinary bladder, lesion: transitional-cell carcinoma, dosed 74 weeks, study length 74 weeks) 865 mg/kg/day.

Regarding `CC1CN(N=O)C(=O)O1` (configuration not stated), the TD50 (hamster, strain Syrian Golden, females, by gavage, site: forestomach, lesion: several types, types named in the paper, dosed 28 weeks, study length 60 weeks) is 0.172 mg/kg/day.
